Measured values: the kinase profiling compilation of Christmann-Franck et al. (2016)

Tests used:
Experiment in all cases: radiometric filter-binding kinase assay, Kinaseprofiler
[1] = test system: GSK3A (human), P49840 [S449A]; settings: ATP 10 µM
CLK2 (human) = CLK2 (human) (UniProt P49760); settings: ATP 15 µM
STK11 (human) = STK11 (human) (UniProt Q15831); settings: ATP 155 µM
GRK6 (human) = GRK6 (human) (UniProt P43250); settings: ATP 45 µM
STK33 (human) = STK33 (human) (UniProt Q9BYT3); settings: ATP 155 µM
PRKCB1 (human) = PRKCB1 (human) (UniProt P05771); settings: ATP 10 µM
PRKCB1 (human), sequence (P05771 whole entry, looked up): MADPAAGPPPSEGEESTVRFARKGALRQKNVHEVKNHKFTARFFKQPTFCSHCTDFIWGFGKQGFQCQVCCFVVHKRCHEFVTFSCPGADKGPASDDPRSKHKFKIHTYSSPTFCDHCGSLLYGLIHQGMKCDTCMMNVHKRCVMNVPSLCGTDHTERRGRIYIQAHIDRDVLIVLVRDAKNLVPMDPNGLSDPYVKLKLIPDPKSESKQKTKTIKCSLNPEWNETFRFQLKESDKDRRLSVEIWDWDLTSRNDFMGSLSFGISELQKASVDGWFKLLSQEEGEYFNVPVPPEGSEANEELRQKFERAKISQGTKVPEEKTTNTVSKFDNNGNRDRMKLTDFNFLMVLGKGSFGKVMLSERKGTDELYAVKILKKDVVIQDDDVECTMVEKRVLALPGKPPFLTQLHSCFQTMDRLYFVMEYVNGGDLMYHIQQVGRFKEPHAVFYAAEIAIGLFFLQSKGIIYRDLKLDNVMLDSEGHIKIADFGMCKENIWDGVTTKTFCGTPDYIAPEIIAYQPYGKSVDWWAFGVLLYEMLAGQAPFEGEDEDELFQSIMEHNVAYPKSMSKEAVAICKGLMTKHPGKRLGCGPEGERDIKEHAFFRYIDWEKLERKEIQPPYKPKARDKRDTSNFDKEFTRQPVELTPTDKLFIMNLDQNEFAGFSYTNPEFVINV

EPHA4 (human) = EPHA4 (human) (UniProt P54764); settings: ATP 15 µM
PRKCB2 (human) = PRKCB2 (human) (UniProt P05771); settings: ATP 10 µM
PRKCB2 (human), sequence (P05771 whole entry, looked up): as above

CHEK2 (human) = CHEK2 (human) (UniProt O96017); settings: ATP 70 µM
DYRK2 (human) = DYRK2 (human) (UniProt Q92630); settings: ATP 15 µM
PLK2 (human) = PLK2 (human) (UniProt Q9NYY3); settings: ATP 120 µM
CDC42BPA (human) = CDC42BPA (human) (UniProt Q5VT25); settings: ATP 45 µM
CDC42BPA (human), sequence (Q5VT25 whole entry, looked up): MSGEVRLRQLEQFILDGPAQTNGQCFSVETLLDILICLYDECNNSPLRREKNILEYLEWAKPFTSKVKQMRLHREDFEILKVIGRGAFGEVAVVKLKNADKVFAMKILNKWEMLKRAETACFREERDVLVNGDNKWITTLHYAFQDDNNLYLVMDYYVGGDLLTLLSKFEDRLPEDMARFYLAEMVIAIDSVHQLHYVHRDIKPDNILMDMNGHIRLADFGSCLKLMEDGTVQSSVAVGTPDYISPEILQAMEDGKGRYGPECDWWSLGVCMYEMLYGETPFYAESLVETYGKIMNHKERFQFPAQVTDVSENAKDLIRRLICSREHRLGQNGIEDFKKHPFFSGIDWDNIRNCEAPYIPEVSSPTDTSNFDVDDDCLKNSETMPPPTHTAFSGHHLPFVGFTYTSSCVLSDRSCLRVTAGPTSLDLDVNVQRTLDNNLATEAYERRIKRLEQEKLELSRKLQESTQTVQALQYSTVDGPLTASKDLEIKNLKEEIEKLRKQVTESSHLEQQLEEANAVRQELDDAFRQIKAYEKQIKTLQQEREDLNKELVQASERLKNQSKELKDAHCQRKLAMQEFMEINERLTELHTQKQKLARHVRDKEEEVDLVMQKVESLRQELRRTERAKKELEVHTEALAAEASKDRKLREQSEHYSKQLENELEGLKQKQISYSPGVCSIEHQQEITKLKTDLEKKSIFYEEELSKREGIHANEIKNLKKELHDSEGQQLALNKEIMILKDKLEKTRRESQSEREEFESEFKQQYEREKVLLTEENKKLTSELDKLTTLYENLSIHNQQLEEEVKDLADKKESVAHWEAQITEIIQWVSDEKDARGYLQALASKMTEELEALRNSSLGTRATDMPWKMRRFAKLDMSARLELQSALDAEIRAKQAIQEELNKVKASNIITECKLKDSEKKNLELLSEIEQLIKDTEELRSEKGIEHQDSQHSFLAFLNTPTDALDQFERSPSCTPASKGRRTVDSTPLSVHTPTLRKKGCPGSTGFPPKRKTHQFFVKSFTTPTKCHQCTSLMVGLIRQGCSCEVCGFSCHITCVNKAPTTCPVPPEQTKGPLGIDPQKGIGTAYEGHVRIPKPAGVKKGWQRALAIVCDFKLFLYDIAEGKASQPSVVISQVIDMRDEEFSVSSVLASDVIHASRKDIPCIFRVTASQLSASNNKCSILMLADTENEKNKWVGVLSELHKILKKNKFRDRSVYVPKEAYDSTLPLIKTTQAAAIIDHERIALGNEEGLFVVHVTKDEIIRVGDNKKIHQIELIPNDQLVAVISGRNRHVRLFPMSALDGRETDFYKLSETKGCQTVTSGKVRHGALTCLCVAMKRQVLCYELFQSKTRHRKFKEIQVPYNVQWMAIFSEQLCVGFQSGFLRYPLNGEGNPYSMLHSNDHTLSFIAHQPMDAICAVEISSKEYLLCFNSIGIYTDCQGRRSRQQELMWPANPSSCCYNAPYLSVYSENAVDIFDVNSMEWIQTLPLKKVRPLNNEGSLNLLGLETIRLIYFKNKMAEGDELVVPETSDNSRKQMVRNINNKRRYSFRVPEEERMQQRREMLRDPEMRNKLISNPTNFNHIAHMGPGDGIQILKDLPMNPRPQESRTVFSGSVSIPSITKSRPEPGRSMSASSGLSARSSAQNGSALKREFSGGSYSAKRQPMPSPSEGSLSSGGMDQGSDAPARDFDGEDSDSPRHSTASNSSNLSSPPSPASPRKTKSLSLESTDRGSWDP

MAPKAPK3 (human) = MAPKAPK3 (human) (UniProt Q16644); settings: ATP 90 µM
PRKCD (human) = PRKCD (human) (UniProt Q05655); settings: ATP 15 µM
ABL1 (human) = ABL1 (human) (UniProt P00519); settings: ATP 10 µM
ULK2 (human) = ULK2 (human) (UniProt Q8IYT8); settings: ATP 15 µM
PKN2 (human) = PKN2 (human) (UniProt Q16513); settings: ATP 15 µM
NTRK2 (human) = NTRK2 (human) (UniProt Q16620); settings: ATP 90 µM
EPHA8 (human) = EPHA8 (human) (UniProt P29322); settings: ATP 200 µM
MAPK12 (human) = MAPK12 (human) (UniProt P53778); settings: ATP 15 µM
CAMK1D (human) = CAMK1D (human) (UniProt Q8IU85); settings: ATP 15 µM
PRKCG (human) = PRKCG (human) (UniProt P05129); settings: ATP 15 µM
MAP3K7 (human) = MAP3K7 (human) (UniProt O43318); settings: ATP 45 µM
MAP3K7 (human), sequence (O43318 whole entry, looked up): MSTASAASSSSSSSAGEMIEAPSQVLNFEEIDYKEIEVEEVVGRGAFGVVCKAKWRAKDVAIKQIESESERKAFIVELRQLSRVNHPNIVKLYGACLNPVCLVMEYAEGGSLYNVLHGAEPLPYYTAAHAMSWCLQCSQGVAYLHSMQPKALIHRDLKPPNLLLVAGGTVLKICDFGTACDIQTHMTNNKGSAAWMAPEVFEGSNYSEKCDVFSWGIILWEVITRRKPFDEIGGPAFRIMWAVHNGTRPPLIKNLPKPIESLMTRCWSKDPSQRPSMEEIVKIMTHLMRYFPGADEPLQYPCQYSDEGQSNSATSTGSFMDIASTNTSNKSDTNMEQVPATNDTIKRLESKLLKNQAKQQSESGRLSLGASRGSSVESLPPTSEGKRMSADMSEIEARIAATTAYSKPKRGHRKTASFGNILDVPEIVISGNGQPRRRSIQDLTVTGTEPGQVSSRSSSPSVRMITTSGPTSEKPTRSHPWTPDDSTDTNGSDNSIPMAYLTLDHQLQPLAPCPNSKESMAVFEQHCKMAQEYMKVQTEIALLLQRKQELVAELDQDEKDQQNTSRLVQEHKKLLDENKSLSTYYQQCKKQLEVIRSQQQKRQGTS

NEK2 (human) = NEK2 (human) (UniProt P51955); settings: ATP 120 µM
PRKCA (human) = PRKCA (human) (UniProt P17252); settings: ATP 45 µM
NLK (human) = NLK (human) (UniProt Q9UBE8); settings: ATP 200 µM

STK11 (human), sequence (Q15831 whole entry, looked up): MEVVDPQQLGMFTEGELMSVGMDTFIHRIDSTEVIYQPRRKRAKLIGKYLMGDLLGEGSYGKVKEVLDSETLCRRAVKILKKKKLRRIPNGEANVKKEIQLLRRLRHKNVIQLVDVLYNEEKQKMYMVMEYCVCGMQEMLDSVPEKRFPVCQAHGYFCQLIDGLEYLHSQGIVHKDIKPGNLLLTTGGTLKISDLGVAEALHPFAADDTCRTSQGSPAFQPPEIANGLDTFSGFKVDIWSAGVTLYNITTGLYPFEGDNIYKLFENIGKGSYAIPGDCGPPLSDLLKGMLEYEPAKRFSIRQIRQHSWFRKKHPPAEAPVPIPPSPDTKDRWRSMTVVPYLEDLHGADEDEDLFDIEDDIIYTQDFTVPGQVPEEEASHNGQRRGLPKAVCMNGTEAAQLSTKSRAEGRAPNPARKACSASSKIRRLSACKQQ

Structure (SMILES): O=C1c2ccccc2-c2n[nH]c3cccc1c23
- residual activity ([1]; compound 1.0 µM): 54%
- residual activity ([1]; compound 10.0 µM): 40%
- residual activity (CLK2 (human); compound 1.0 µM): 36%
- residual activity (CLK2 (human); compound 10.0 µM): 21%
- residual activity (STK11 (human); compound 1.0 µM): 75%
- residual activity (STK11 (human); compound 10.0 µM): 41%
- residual activity (GRK6 (human); compound 1.0 µM): 87%
- residual activity (GRK6 (human); compound 10.0 µM): 81%
- residual activity (STK33 (human); compound 1.0 µM): 61%
- residual activity (STK33 (human); compound 10.0 µM): 16%
- residual activity (PRKCB1 (human); compound 1.0 µM): 102%
- residual activity (PRKCB1 (human); compound 10.0 µM): 104%
- residual activity (EPHA4 (human); compound 1.0 µM): 105%
- residual activity (EPHA4 (human); compound 10.0 µM): 106%
- residual activity (PRKCB2 (human); compound 1.0 µM): 108%
- residual activity (PRKCB2 (human); compound 10.0 µM): 102%
- residual activity (CHEK2 (human); compound 1.0 µM): 29%
- residual activity (CHEK2 (human); compound 10.0 µM): 2%
- residual activity (DYRK2 (human); compound 1.0 µM): 4%
- residual activity (DYRK2 (human); compound 10.0 µM): -5%
- residual activity (PLK2 (human); compound 1.0 µM): 85%
- residual activity (PLK2 (human); compound 10.0 µM): 61%
- residual activity (CDC42BPA (human); compound 1.0 µM): 115%
- residual activity (CDC42BPA (human); compound 10.0 µM): 116%
- residual activity (MAPKAPK3 (human); compound 1.0 µM): 100%
- residual activity (MAPKAPK3 (human); compound 10.0 µM): 103%
- residual activity (PRKCD (human); compound 1.0 µM): 99%
- residual activity (PRKCD (human); compound 10.0 µM): 71%
- residual activity (ABL1 (human); compound 1.0 µM): 83%
- residual activity (ABL1 (human); compound 10.0 µM): 56%
- residual activity (ULK2 (human); compound 1.0 µM): 90%
- residual activity (ULK2 (human); compound 10.0 µM): 45%
- residual activity (PKN2 (human); compound 1.0 µM): 74%
- residual activity (PKN2 (human); compound 10.0 µM): 32%
- residual activity (NTRK2 (human); compound 1.0 µM): 32%
- residual activity (NTRK2 (human); compound 10.0 µM): 5%
- residual activity (EPHA8 (human); compound 1.0 µM): 92%
- residual activity (EPHA8 (human); compound 10.0 µM): 76%
- residual activity (MAPK12 (human); compound 1.0 µM): 82%
- residual activity (MAPK12 (human); compound 10.0 µM): 61%
- residual activity (CAMK1D (human); compound 1.0 µM): 70%
- residual activity (CAMK1D (human); compound 10.0 µM): 38%
- residual activity (PRKCG (human); compound 1.0 µM): 73%
- residual activity (PRKCG (human); compound 10.0 µM): 30%
- residual activity (MAP3K7 (human); compound 1.0 µM): 41%
- residual activity (MAP3K7 (human); compound 10.0 µM): 19%
- residual activity (NEK2 (human); compound 1.0 µM): 86%
- residual activity (NEK2 (human); compound 10.0 µM): 81%
- residual activity (PRKCA (human); compound 1.0 µM): 98%
- residual activity (PRKCA (human); compound 10.0 µM): 73%
- residual activity (NLK (human); compound 1.0 µM): 78%
- residual activity (NLK (human); compound 10.0 µM): 71%
